This passage reports melting point results from patent US20020026052A1, “3-cyanoquinolines, 3-cyano-1,6-naphthyridines, and 3-cyano-1,7-naphthyridines as protein kinase inhibitors” (American Home Products Corporation, priority 2000, published 2002).

A word on the melting point: it is the temperature, or range, at which the solid turns liquid.

On to `N#Cc1cnc2cc(-c3csc(C=O)c3)ccc2c1Nc1ccc(Cl)cc1Cl` [Example 44, 4-(2,4-dichloroanilino)-7-(5-formyl-3-thienyl)-3-quinolinecarbonitrile], for which the melting point lay in the range of 286 to 288 °C.

As to `CN(CCO)c1ccc(-c2ccc3c(Nc4ccc(Sc5nccn5C)c(Cl)c4)c(C#N)cnc3c2)cn1` [Example 216, 4-({3-Chloro-4-[(1-methyl-1H-imidazol-2-yl)sulfanyl]phenyl}amino)-7-{6-[(2-hydroxyethyl) (methyl)amino]-3-pyridinyl}-3-quinolinecarbonitrile], the melting point is 228 °C (dec.).

On to `COCCOc1ccc(-c2ccc3c(Nc4cc(OC)c(Cl)cc4Cl)c(C#N)cnc3c2)cc1` [Example 130, 4-(2,4-Dichloro-5-methoxyanilino)-7-{4-[(2-methoxy)ethoxy]phenyl}-3-quinolinecarbonitrile], for which the melting point is 205 to 207 °C.

In the case of `Cn1ccnc1Sc1ccc(Nc2c(C#N)cnc3cc(-c4cc(CN5CCOCC5)c(CN5CCOCC5)s4)ccc23)cc1Cl` [Example 169, 7-[4,5-Bis(4-morpholinylmethyl)-2-thienyl]-4-{3-chloro-4-[(1-methyl-1H-irnidazol-2-yl)sulfanyl]anilino}-3-quinolinecarbonitrile], the melting point lay in the range of 173 to 175 °C.

In turn, `Cn1ccnc1Sc1ccc(Nc2c(C#N)cnc3cc(-c4cc(CN5CCOCC5)ccn4)ccc23)cc1Cl` [Example 203, 4-({3-Chloro-4-[(1-methyl-1H-imidazol-2-yl)sulfanyl]phenyl}amino)-7-[4-(4-morpholinylmethyl)-2-pyridinyl]-3-quinolinecarbonitrile] returned a melting point of 205 to 207 °C.

The molecule `COc1cc2c(Nc3ccc(Sc4nccn4C)c(Cl)c3)c(C#N)cnc2cc1-c1csc(CN2CCN(C)CC2)c1` [Example 126, 4-{3-chloro-4-[(1-methylimidazol-2-yl)sulfanyl]anilino}-6-methoxy-7-{5-[(4-methyl-1-piperazinyl)methyl]-3-thienyl}-3-quinolinecarbonitrile] displayed a melting point of 162 to 164 °C.

`CCN1CCN(Cc2ccc(-c3ccc4c(Nc5ccc(Sc6nccn6C)c(Cl)c5)c(C#N)cnc4c3)cn2)CC1` [Example 220, 4-({3-Chloro-4-[(1-methyl-1H-imidazol-2-yl)sulfanyl]phenyl}amino)-7-1-{6-[(4-ethyl-1-piperazinyl)methyl]-3-pyridinyl}-3-quinolinecarbonitrile]: the melting point lay within 192 to 195 °C.

On to `Cn1ccnc1Sc1ccc(Nc2c(C#N)cnc3cc(-c4ccc(CN5CCN(CCO)CC5)o4)ccc23)cc1Cl` [Example 157, 4-{3-Chloro-4-[(1-methyl-1H-irnidazol-2-yl)sulfanyl]anilino}-7-(5-{[4-(2-hydroxyethyl)-1-piperazinyl]methyl}-2-furyl)-3-quinolinecarbonitrile], for which the melting point was in the range of 206 to 209 °C.

For the molecule `CCOC(=O)C1CCN(c2ccc(-c3ccc4c(Nc5ccc(Sc6nccn6C)c(Cl)c5)c(C#N)cnc4c3)cn2)CC1` [Example 213, Ethyl 1-{5-[4-({3-chloro-4-[(1-methyl-iH-imidazol-2-yl)sulfanyl]phenyl}amino)-3-cyano-7-quinolinyl]-2-pyridinyl}-4-piperidinecarboxylate], the melting point fell in the range of 253 to 255 °C.

Molecule `Cn1ccnc1Sc1ccc(Nc2c(C#N)cnc3cc(-c4ccc(CN5CCOCC5)cc4)ccc23)cc1Cl` [Example 63, 4-{3-chloro-4-[(1-methyl-1H-imidazol-2-yl)sulfanyl]anilino}-7-[4-(4-morpholinylmethyl)phenyl]-3-quinolinecarbonitrile] displayed a melting point of 148 to 150 °C.

The molecule `CCN1CCN(c2ccc(-c3ccc4c(Nc5cc(OC)c(Cl)cc5Cl)c(C#N)cnc4c3)cn2)CC1` [Example 197, 4-(2,4-Dichloro-5-methoxyanilino)-7-[6-(4-ethyl-1-piperazinyl)-3-pyridinyl]-3-quinolinecarbonitrile] returned a melting point of 264 to 266 °C.

`Cn1ccnc1Sc1ccc(Nc2c(C#N)cnc3cc(-c4ccc(CN5CCC(N6CCCC6)CC5)cn4)ccc23)cc1Cl` [Example 173, 4-{3-Chloro-4-[(1-methyl-1H-imidazol-2-yl)sulfanyl]anilino}-7-(5-{[4-(1-pyrrolidinyl)-1-piperidinyl]methyl}-2-pyridinyl)-3-quinolinecarbonitrile]: the melting point was 183 to 185 °C.

For `CCN1CCN(Cc2ccnc(-c3ccc4c(Nc5ccc(Sc6nccn6C)c(Cl)c5)c(C#N)cnc4c3)c2)CC1` [Example 205, 4-({3-Chloro-4-[(1-methyl-iH-imidazol-2-yl)sulfanyl]phenyl}amino)-7-{4-[(4-ethyl-1-piperazinyl)methyl]-2-pyridinyl}-3-quinolinecarbonitrile], the melting point was 150 to 153 °C.

`Cn1ccnc1Sc1ccc(Nc2c(C#N)cnc3cc(-c4ccc(CN5CCN(CCO)CC5)s4)ccc23)cc1Cl` [Example 161, 4-{3-Chloro-4-[(1-methyl-1H-imidazol-2-yl)sulfanyl]anilino}-7-(5-{[4-(2-hydroxyethyl)-1-piperazinyl]methyl}-2-thienyl)-3-quinolinecarbonitrile] returned a melting point of 145 to 147 °C.

As for `COc1ccc(-c2cc3ncc(C#N)c(Nc4ccc(Sc5nccn5C)c(Cl)c4)c3cc2OC)cc1` [Example 127, 4-{3-Chloro-4-[(I -methyl-iH-imidazol-2-yl)sulfanyl]anilino}-6-methoxy-7-(4-methoxyphenyl)-3-quinolinecarbonitrile], the melting point lay in the range of 227 to 229 °C.

In turn, `CN1CCN(Cc2ccc(-c3ccc4c(Nc5ccc(Sc6nccn6C)c(Cl)c5)c(C#N)cnc4c3)nc2)CC1` [Example 189, 4-{3-Chloro-4-[(1-methyl-1H-imidazol-2-yl)sulfanyl]anilino}-7-1-{5-[(4-methyl-1-piperazinyl)methyl]-2-pyridinyl}-3-quinolinecarbonitrile] showed a melting point of 197 to 199 °C.

On to `COc1cc(Nc2c(C#N)cnc3cc(-c4csc(C=O)c4)ccc23)c(Cl)cc1Cl` [Example 43, 4-(2,4-Dichloro-5-methoxyanilino)-7-(5-formyl-3-thienyl)-3-quinolinecarbonitrile], for which the melting point was 259 to 262 °C (dec.).

As to `CN1CCN(Cc2ccc(-c3ccc4c(Nc5ccc(Sc6nccn6C)c(Cl)c5)c(C#N)cnc4c3)cn2)CC1` [Example 221, 4-({3-Chloro-4-[(1-methyl-1H-imidazol-2-yl)sulfanyl]phenyl}amino)-7-1-{6-[(4-methyl-1-piperazinyl)methyl]-3-pyridinyl}-3-quinolinecarbonitrile], the melting point lay in the range of 228 to 230 °C.

The molecule `N#Cc1cnc2cc(-c3csc(CN4CCOCC4)c3)ccc2c1Nc1ccc(Cc2ccccc2)cc1` [Example 8, 4-(4-Benzylanilino)-7-[5-(4-morpholinylmethyl)-3-thienyl]-3-quinolinecarbonitrile] showed a melting point of 228 to 230 °C.

Molecule `Cn1ccnc1Sc1ccc(Nc2c(C#N)cnc3cc(-c4ccc(CN5CCC(O)CC5)cn4)ccc23)cc1Cl` [Example 172, 4-{3-Chloro-4-[(1-methyl-1H-imidazol-2-yl)sulfanyl]anilino}-7-{5-[(4-hydroxy-1-piperidinyl)methyl]-2-pyridinyl}-3-quinolinecarbonitrile] returned a melting point of 194 to 196 °C.
